{"source": "patent US6929799B2", "about": "“D-alanine racemase mutants of mycobacteria and uses therefore” (priority 2001, dated 2005)", "key": {"[1]": {"test_system": "M. smegmatis wild type mc2155", "assay": "microbe, parasite or virus in culture", "assay_type": "cell-based, Mycobacterium smegmatis", "settings": "for MIC: Mycolicibacterium smegmatis"}, "[2]": {"test_system": "M. smegmatis TAM23 alr mutant", "assay": "MIC by microplate twofold dilution, alr mutant strain", "assay_type": "cell-based, Mycobacterium smegmatis", "settings": "for MIC: Mycolicibacterium smegmatis, TAM23ALRMUTANT"}, "[3]": {"molecular_target": "M. smegmatis D-alanine racemase (AlrA) (Mycolicibacterium smegmatis, UniProt P94967)", "sequence (P94967 whole entry)": "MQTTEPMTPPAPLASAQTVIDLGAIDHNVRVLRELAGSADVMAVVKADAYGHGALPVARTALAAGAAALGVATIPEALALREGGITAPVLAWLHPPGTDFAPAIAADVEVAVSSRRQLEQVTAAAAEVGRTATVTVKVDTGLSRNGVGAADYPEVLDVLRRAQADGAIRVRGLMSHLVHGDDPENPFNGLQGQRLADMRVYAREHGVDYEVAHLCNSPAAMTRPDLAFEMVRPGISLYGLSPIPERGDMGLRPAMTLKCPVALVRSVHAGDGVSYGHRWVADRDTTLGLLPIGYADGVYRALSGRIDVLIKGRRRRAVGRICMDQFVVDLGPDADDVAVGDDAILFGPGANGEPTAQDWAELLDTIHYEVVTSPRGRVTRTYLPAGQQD", "settings": "Caceres et al., 1997; listed as DCS; cited from earlier work"}, "M. smegmatis mc2155": {"test_system": "M. smegmatis mc2155", "assay_type": "cell-based, Mycobacterium smegmatis"}, "D-alanine ligase": {"test_system": "D-alanine ligase", "settings": "David, 1969; Chacon, Ph.D. thesis; cited from earlier work"}, "M. smegmatis TAM23": {"test_system": "M. smegmatis TAM23", "assay": "Bactericidal action of DCS in broth culture, alr mutant strain", "assay_type": "cell-based, Mycobacterium smegmatis"}, "[4]": {"settings": "MC2155, 48 h, read-out: Minimal Inhibitory Concentration (MIC)"}, "[5]": {"settings": "48 h, read-out: Minimal Inhibitory Concentration (MIC), TAM23 alr mutant, inoculum grown with 50 mM D-alanine, Middlebrook 7H9, 48 h"}, "[6]": {"settings": "48 h, read-out: Minimal Inhibitory Concentration (MIC), TAM23 alr mutant, inoculum grown without D-alanine, Middlebrook 7H9, 48 h"}}, "note": "Where two headings read alike, the source gives them in different places.", "data": [{"molecule": "CC[C@@H](CO)NCCN[C@@H](CC)CO", "note": "[Ethambutol, ethambutol]", "values": [{"measurement": "MIC", "setting": "[1]; [4]", "value": 3.13, "unit": "µg/mL"}, {"measurement": "MIC", "setting": "[2]; [5]", "value": 3.13, "unit": "µg/mL"}, {"measurement": "MIC", "setting": "[2]; [6]", "value": 3.13, "unit": "µg/mL"}]}, {"molecule": "CO[C@H]1/C=C/O[C@@]2(C)Oc3c(C)c(O)c4c(c3C2=O)C2=NC3(CCN(CC(C)C)CC3)NC2=C(NC(=O)/C(C)=C\\C=C\\[C@H](C)[C@H](O)[C@@H](C)[C@@H](O)[C@@H](C)[C@H](OC(C)=O)[C@@H]1C)C4=O", "note": "[Rifabutin, rifabutin]", "values": [{"measurement": "MIC", "setting": "[1]; [4]", "value": 2, "unit": "µg/mL"}, {"measurement": "MIC", "setting": "[2]; [5]", "value": 1, "unit": "µg/mL"}, {"measurement": "MIC", "setting": "[2]; [6]", "value": 2, "unit": "µg/mL"}]}, {"molecule": "NCC[C@H](O)C(=O)N[C@@H]1C[C@H](N)[C@@H](O[C@H]2O[C@H](CN)[C@@H](O)[C@H](O)[C@H]2O)[C@H](O)[C@H]1O[C@H]1O[C@H](CO)[C@@H](O)[C@H](N)[C@H]1O", "note": "[Amikacin, amikacin]", "values": [{"measurement": "MIC", "setting": "[1]; [4]", "value": 1.56, "unit": "µg/mL"}, {"measurement": "MIC", "setting": "[2]; [5]", "value": 1.56, "unit": "µg/mL"}, {"measurement": "MIC", "setting": "[2]; [6]", "value": 1.56, "unit": "µg/mL"}]}, {"molecule": "N[C@@H]1CON=C1O", "note": "[D-Cycloserine, D-cycloserine]", "values": [{"measurement": "Minimal Inhibitory Concentration (MIC)", "setting": "[1]", "value": 75.0, "unit": "µg/mL"}, {"measurement": "MIC", "setting": "[1]; [4]", "value": 75, "unit": "µg/mL"}, {"measurement": "MIC", "setting": "[1]; MC2155, read-out: MIC with D-alanine added directly into the MIC test cultures", "value": 1200, "unit": "µg/mL"}, {"measurement": "Inhibition of D-alanine racemase", "setting": "[3]", "value": "inhibited by DCS in a concentration-dependent manner"}, {"measurement": "Bactericidal effect (optical density and viable counts)", "setting": "M. smegmatis mc2155", "value": "rapid death by lysis"}, {"measurement": "MIC", "setting": "[2]; [5]", "value": 10.2, "unit": "µg/mL"}, {"measurement": "MIC", "setting": "[2]; [6]", "value": 2.56, "unit": "µg/mL"}, {"measurement": "MIC", "setting": "[2]; TAM23, independent of prior growth conditions of the inocula, read-out: MIC with D-alanine added directly into the MIC test cultures", "value": 1200, "unit": "µg/mL"}, {"measurement": "MIC for TAM23, times lower than the MIC for the wild-type strain", "setting": "[2]; inoculum grown with D-alanine, washed", "value": "about 7.5 times"}, {"measurement": "Sensitivity of TAM23 relative to wild type (MIC ratio)", "setting": "[2]; inoculum grown without D-alanine", "value": "about 30 fold"}, {"measurement": "Inhibition of D-alanine ligase activity", "setting": "D-alanine ligase", "value": "inhibited"}, {"measurement": "Bactericidal effect (optical density and viable counts)", "setting": "M. smegmatis TAM23; DCS at 50 times the MIC (128 μg/ml), broth without D-alanine, up to 72 h", "value": "rapid death by lysis"}, {"measurement": "Bactericidal drug concentration for mutant strain, fold lower than for wild-type strain", "setting": "M. smegmatis TAM23; absolute drug concentrations", "value": 30, "unit": "fold"}]}]}
